In patent publication US7067158B2, “Preparation for the relief of disease” (AKL Technologies Limited, priority 2001, dated 2006):

What was measured:
[1] = tested on: Platelet Activating Factor (PAF); details: cited from earlier work
[2] = Treatment of COPD in horses; assay type: in vivo; details: horse K: COPD
Procedure: (§1) The loading dose is from three to ten days according to individual perceived clinical need. After the loading dose, the maintenance dose follows for a minimum (normally) of 30 days continuing as needed. The doses are scaled according to individual size/body weight. The dose was added as a powder in the animals' feed.
(§2) JMJ, FRA and D-Tox are available from Nutrilabs of Penrhos, Raglan, Monmouthshire. They are used to make the following Example compositions according to the invention, which were used in Examples A to AA below. The following gives a daily dose for a 450 kg horse. With any of the following Example Compositions during ANY acute phase, a loading dose of 3 times the daily dose may be used to assist a rapid return to ‘well being’.

platelets = test: Born aggregometry: ADP-induced platelet aggregation in platelet rich plasma (PRP); assay type: cell-based, human; details: ADP 4×10^−6 M
Procedure: Extracts of components were prepared by stirring macerated samples overnight in methanol. The mixtures were centrifuged, the supernatants drawn off and dried to remove all traces of the extracting solvent. Resulting solids were re-suspended in normal saline (0.9% w/v NaCl) at saturated concentrations.
Extracts 2, 5 and 8 were reconstituted in 0.9% saline at saturated concentrations.
Citrated whole blood, from healthy volunteers, was spun at 900 rpm for 20 minutes to obtain platelet rich plasma (PRP). Born aggregometry was then carried out within 1 hour of blood being taken. Extracts 2, 5, and 8 were added to 450 μl PRP either singly (6 μl), or in combination with one other extract (3 μl each), or all the extracts in combination (2 μl each). PRP was then stimulated with ADP (Sigma) 4×10^−6 M. 6 μl of saline was added to PRP for the control. Aggregation was measured in a PAP4C aggregometer (BioData Corp. Horsham USA) over 10 minutes.
The dose of agonist was chosen to give slightly sub-optimal aggregation thus showing the maximum effect of any inhibition. Doses of extracts were chosen to show the effect on platelets when used alone and any added and/or synergistic effect of using combinations. All data is recorded as the maximum aggregation.

[3] = Treatment of laminitis in horses; assay type: in vivo; details: horse L: on Bute for two months
Procedure: as §1, §2

**Q.** With `CC1C(=O)OC2C(O)C34C5CC(C(C)(C)C)C36C(OC(=O)C6O)OC4(C(=O)O5)C12O` (stereo not shown) [ginkgolide B] as the compound, how does the PAF inhibiting activity [1] read?
**A.** potent

**Q.** Which “clinical outcome (owner report)” value [2] does the source give for `CC(C)(C)NCC(O)c1cc(Cl)c(N)c(Cl)c1` (stereo not shown) [Ventipulmin, clenbuterol] here?
**A.** had no effect

**Q.** With `COc1cc(C(C)=O)ccc1O` [Extract 2, Apocynin] as the compound, how does the “effect on platelet aggregation in response to ADP (in words)” value (platelets) read?
**A.** reduced platelet aggregation in response to ADP

**Q.** For `CCCCC1C(=O)N(c2ccccc2)N(c2ccccc2)C1=O` [Bute], which adverse reaction [3] is on record?
**A.** ulcers around the mouth and sores on the muzzle
